Experimental data reported in patent US20200055839A1 (priority 2017, published 2020).
pEC50: −log10 of the molar value.

test system: NL-RLuc virus; assay: Inhibition of HIV replication (NL-RLuc virus, luciferase readout in MT-2 cells); format: cell-based; conditions: Human immunodeficiency virus 1, MT2, 120 h, MT-2 cells infected with NL-RLuc virus, 5 days of incubation, 10% FBS, at least 2 experiments
Method in brief: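 EC50 derived via median effect equation from at least 2 experiments, using luciferase expression as virus-growth readout. Replication-competent NL-RLuc reporter virus (nef partly replaced by Renilla luciferase) infected MT-2 cells with serial compound dilutions; 5-day incubation in RPMI 1640 plus 10% FBS.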

Q: Cc1ccccc1CCOc1ncc(-c2cnc(C)c([C@H](OC(C)(C)C)C(=O)O)c2N2CCC(C)(C)CC2)cc1F [Example 385, (2S)-2-(tert-butoxy)-2-[4-(4,4-dimethylpiperidin-1-yl)-5′-fluoro-6-methyl-6′-[2-(2-methylphenyl)ethoxy]-[3,3′-bipyridine]-5-yl]acetic acid] was tested. Which pEC50 did it give?
A: 8.52

Q: How did the pEC50 turn out when CCC(C)COc1ncc(-c2cnc(C)c([C@H](OC(C)(C)C)C(=O)O)c2N2CCC(C)(C)CC2)cc1F (stereo partly drawn) [Example 386, (2S)-2-(tert-butoxy)-2-[4-(4,4-dimethylpiperidin-1-yl)-5′-fluoro-6-methyl-6′-(2-methylbutoxy)-[3,3′-bipyridine]-5-yl]acetic acid] was run?
A: 8.22

Q: How did the pEC50 turn out when Cc1ncc(-c2cnc(O)c(F)c2)c(N2CCC(C)(C)CC2)c1[C@H](OC(C)(C)C)C(=O)O [Example 387, (2S)-2-(tert-butoxy)-2-[4-(4,4-dimethylpiperidin-1-yl)-5′-fluoro-6′-hydroxy-6-methyl-[3,3′-bipyridine]-5-yl]acetic acid] was run?
A: 5.40

Q: With Cc1ncc(-c2cnc(OC[C@@H](C)c3ccccc3)c(F)c2)c(N2CCC(C)(C)CC2)c1[C@H](OC(C)(C)C)C(=O)O [Example 388, (2S)-2-(tert-butoxy)-2-[4-(4,4-dimethylpiperidin-1-yl)-5′-fluoro-6-methyl-6′-[(2S)-2-phenylpropoxy]-[3,3′-bipyridine]-5-yl]acetic acid] as the compound, how does the pEC50 read?
A: 8.52

Q: How did the pEC50 turn out when CCCOc1ncc(-c2cnc(C)c([C@H](OC(C)(C)C)C(=O)O)c2N2CCC(C)(C)CC2)cc1F [Example 389, (2S)-2-(tert-butoxy)-2-[4-(4,4-dimethylpiperidin-1-yl)-5′-fluoro-6-methyl-6′-propoxy-[3,3′-bipyridine]-5-yl]acetic acid] was run?
A: 8.52

Q: How did the pEC50 turn out when Cc1ncc(-c2cnc(OCCc3cc(F)cc(F)c3)c(F)c2)c(N2CCC(C)(C)CC2)c1[C@H](OC(C)(C)C)C(=O)O [Example 390, (2S)-2-(tert-butoxy)-2-{6′-[2-(3,5-difluorophenyl)ethoxy]-4-(4,4-dimethylpiperidin-1-yl)-5′-fluoro-6-methyl-[3,3′-bipyridine]-5-yl}acetic acid] was run?
A: 8.70

Q: How did the pEC50 turn out when COc1ccc(CCOc2ncc(-c3cnc(C)c([C@H](OC(C)(C)C)C(=O)O)c3N3CCC(C)(C)CC3)cc2F)cc1C [Example 391, (2S)-2-(tert-butoxy)-2-[4-(4,4-dimethylpiperidin-1-yl)-5′-fluoro-6′-[2-(4-methoxy-3-methylphenyl)ethoxy]-6-methyl-[3,3′-bipyridine]-5-yl]acetic acid] was run?
A: 8.40

Q: How did the pEC50 turn out when Cc1ncc(-c2cnc(OCCc3ccc(F)c(F)c3)c(F)c2)c(N2CCC(C)(C)CC2)c1[C@H](OC(C)(C)C)C(=O)O [Example 392, (2S)-2-(tert-butoxy)-2-{6′-[2-(3,4-difluorophenyl)ethoxy]-4-(4,4-dimethylpiperidin-1-yl)-5′-fluoro-6-methyl-[3,3′-bipyridine]-5-yl}acetic acid] was run?
A: 9.00

Q: With Cc1ncc(-c2cnc(OCCc3c(F)cccc3F)c(F)c2)c(N2CCC(C)(C)CC2)c1[C@H](OC(C)(C)C)C(=O)O [Example 393, (2S)-2-(tert-butoxy)-2-{6′-[2-(2,6-difluorophenyl)ethoxy]-4-(4,4-dimethylpiperidin-1-yl)-5′-fluoro-6-methyl-[3,3′-bipyridine]-5-yl}acetic acid] as the compound, how does the pEC50 read?
A: 8.70

Q: With Cc1ncc(-c2cnc(OCCCC(C)C)c(F)c2)c(N2CCC(C)(C)CC2)c1[C@H](OC(C)(C)C)C(=O)O [Example 394, (2S)-2-(tert-butoxy)-2-[4-(4,4-dimethylpiperidin-1-yl)-5′-fluoro-6-methyl-6′-[(4-methylpentyl)oxy]-[3,3′-bipyridine]-5-yl]acetic acid] as the compound, how does the pEC50 read?
A: 8.52

Q: Cc1ncc(-c2cnc(OCCc3ccc(Cl)cc3)c(F)c2)c(N2CCC(C)(C)CC2)c1[C@H](OC(C)(C)C)C(=O)O [Example 395, (2S)-2-(tert-butoxy)-2-{6′-[2-(4-chlorophenyl)ethoxy]-4-(4,4-dimethylpiperidin-1-yl)-5′-fluoro-6-methyl-[3,3′-bipyridine]-5-yl}acetic acid] was tested. Which pEC50 did it give?
A: 8.70

Q: Cc1ncc(-c2cnc(O[C@H](C)c3ccccc3)c(F)c2)c(N2CCC(C)(C)CC2)c1[C@H](OC(C)(C)C)C(=O)O [Example 396, (2S)-2-(tert-butoxy)-2-[4-(4,4-dimethylpiperidin-1-yl)-5′-fluoro-6-methyl-6′-[(1R)-1-phenylethoxy]-[3,3′-bipyridine]-5-yl]acetic acid] was tested. Which pEC50 did it give?
A: 8.70

Q: How did the pEC50 turn out when Cc1cc(CCOc2ncc(-c3cnc(C)c([C@H](OC(C)(C)C)C(=O)O)c3N3CCC(C)(C)CC3)cc2F)ccc1F [Example 397, (2S)-2-(tert-butoxy)-2-[4-(4,4-dimethylpiperidin-1-yl)-5′-fluoro-6′-[2-(4-fluoro-3-methylphenyl)ethoxy]-6-methyl-[3,3′-bipyridine]-5-yl]acetic acid] was run?
A: 8.70

Q: Cc1cc(F)ccc1CCOc1ncc(-c2cnc(C)c([C@H](OC(C)(C)C)C(=O)O)c2N2CCC(C)(C)CC2)cc1F [Example 398, (2S)-2-(tert-butoxy)-2-[4-(4,4-dimethylpiperidin-1-yl)-5′-fluoro-6′-[2-(4-fluoro-2-methylphenyl)ethoxy]-6-methyl-[3,3′-bipyridine]-5-yl]acetic acid] was tested. Which pEC50 did it give?
A: 8.70

Q: How did the pEC50 turn out when COc1ccc(CCOc2ncc(-c3cnc(C)c([C@H](OC(C)(C)C)C(=O)O)c3N3CCC(C)(C)CC3)cc2F)c(C)c1 [Example 399, (2S)-2-(tert-butoxy)-2-[4-(4,4-dimethylpiperidin-1-yl)-5′-fluoro-6′-[2-(4-methoxy-2-methylphenyl)ethoxy]-6-methyl-[3,3′-bipyridine]-5-yl]acetic acid] was run?
A: 8.70

Q: With Cc1ncc(-c2cnc(O[C@@H](C)c3ccccc3)c(F)c2)c(N2CCC(C)(C)CC2)c1[C@H](OC(C)(C)C)C(=O)O [Example 400, (2S)-2-(tert-butoxy)-2-[4-(4,4-dimethylpiperidin-1-yl)-5′-fluoro-6-methyl-6′-[(1S)-1-phenylethoxy]-[3,3′-bipyridine]-5-yl]acetic acid] as the compound, how does the pEC50 read?
A: 8.22

Q: How did the pEC50 turn out when Cc1ccc(F)cc1CCOc1ncc(-c2cnc(C)c([C@H](OC(C)(C)C)C(=O)O)c2N2CCC(C)(C)CC2)cc1F [Example 401, (2S)-2-(tert-butoxy)-2-[4-(4,4-dimethylpiperidin-1-yl)-5′-fluoro-6′-[2-(5-fluoro-2-methylphenyl)ethoxy]-6-methyl-[3,3′-bipyridine]-5-yl]acetic acid] was run?
A: 8.70

Q: Cc1ncc(-c2cnc(OCC(C)(C)c3ccccc3)c(F)c2)c(N2CCC(C)(C)CC2)c1[C@H](OC(C)(C)C)C(=O)O [Example 402, (2S)-2-(tert-butoxy)-2-[4-(4,4-dimethylpiperidin-1-yl)-5′-fluoro-6-methyl-6′-(2-methyl-2-phenylpropoxy)-[3,3′-bipyridine]-5-yl]acetic acid] was tested. Which pEC50 did it give?
A: 8.52

Q: With Cc1ncc(-c2cnc(OCCc3ccc(F)c(Cl)c3)c(F)c2)c(N2CCC(C)(C)CC2)c1[C@H](OC(C)(C)C)C(=O)O [Example 403, (2S)-2-(tert-butoxy)-2-{6′-[2-(3-chloro-4-fluorophenyl)ethoxy]-4-(4,4-dimethylpiperidin-1-yl)-5′-fluoro-6-methyl-[3,3′-bipyridine]-5-yl}acetic acid] as the compound, how does the pEC50 read?
A: 8.70

Q: With Cc1ncc(-c2cnc(OCCc3c(F)cc(F)cc3F)c(F)c2)c(N2CCC(C)(C)CC2)c1[C@H](OC(C)(C)C)C(=O)O [Example 404, (2S)-2-(tert-butoxy)-2-[4-(4,4-dimethylpiperidin-1-yl)-5′-fluoro-6-methyl-6′-[2-(2,4,6-trifluorophenyl)ethoxy]-[3,3′-bipyridine]-5-yl]acetic acid] as the compound, how does the pEC50 read?
A: 8.52

Q: With Cc1ccc(CCOc2ncc(-c3cnc(C)c([C@H](OC(C)(C)C)C(=O)O)c3N3CCC(C)(C)CC3)cc2F)cc1 [Example 405, (2S)-2-(tert-butoxy)-2-[4-(4,4-dimethylpiperidin-1-yl)-5′-fluoro-6-methyl-6′-[2-(4-methylphenyl)ethoxy]-[3,3′-bipyridine]-5-yl]acetic acid] as the compound, how does the pEC50 read?
A: 8.40

Q: With Cc1ncc(-c2cnc(OCCCc3ccccc3)c(F)c2)c(N2CCC(C)(C)CC2)c1[C@H](OC(C)(C)C)C(=O)O [Example 406, (2S)-2-(tert-butoxy)-2-[4-(4,4-dimethylpiperidin-1-yl)-5′-fluoro-6-methyl-6′-(3-phenylpropoxy)-[3,3′-bipyridine]-5-yl]acetic acid] as the compound, how does the pEC50 read?
A: 8.40

Q: CCCCCOc1ncc(-c2cnc(C)c([C@H](OC(C)(C)C)C(=O)O)c2N2CCC(C)(C)CC2)cc1F [Example 407, (2S)-2-(tert-butoxy)-2-[4-(4,4-dimethylpiperidin-1-yl)-5′-fluoro-6-methyl-6′-(pentyloxy)-[3,3′-bipyridine]-5-yl]acetic acid] was tested. Which pEC50 did it give?
A: 8.40

Q: How did the pEC50 turn out when CCCCCOc1ccc(-c2cnc(C)c([C@H](OC(C)(C)C)C(=O)O)c2N2CCC(C)(C)CC2)cn1 [Example 408, (S)-2-(tert-Butoxy)-2-(4-(4,4-dimethylpiperidin-1-yl)-6-methyl-6′-(pentyloxy)-[3, 3′-bipyridin]-5-yl)acetic acid] was run?
A: 8.70

Q: COc1cc(-c2cnc(C)c([C@H](OC(C)(C)C)C(=O)O)c2N2CCC(C)(C)CC2)cnc1OCC(C)C [Example 410, (S)-2-(tert-Butoxy)-2-(4-(4,4-dimethylpiperidin-1-yl)-6′-isobutoxy-5′-methoxy-6-methyl-[3,3′-bipyridin]-5-yl)acetic acid] was tested. Which pEC50 did it give?
A: 8.22

Q: How did the pEC50 turn out when Cc1ncc(-c2ccc(C(F)CC(C)C)nc2)c(N2CCC(C)(C)CC2)c1[C@H](OC(C)(C)C)C(=O)O (stereo partly drawn) [Example 411, (2S)-2-(tert-Butoxy)-2-(4-(4,4-dimethylpiperidin-1-yl)-6′-(1-fluoro-3-methylbutyl)-6-methyl-[3, 3′-bipyridin]-5-yl)acetic acid] was run?
A: 7.70

Q: Cc1cccc(Cl)c1CCOc1ccc(-c2cnc(C)c([C@H](OC(C)(C)C)C(=O)O)c2N2CCC(C)(C)CC2)cn1 [Example 412, (S)-2-(tert-Butoxy)-2-(6′-(2-chloro-6-methylphenethoxy)-4-(4,4-dimethylpiperidin-1-yl)-6-methyl-[3, 3′-bipyridin]-5-yl)acetic acid] was tested. Which pEC50 did it give?
A: 8.40
